Test results as given in US5358951A, “Angiotensin II receptor blocking 2, 3, 6 substituted quinazolinones” (American Cyanamid Company, priority 1993, dated 1994).

Test system: vasopressor response of angiotensin II
Test: AII Challenge: antagonism of angiotensin II vasopressor response
Type: in vivo
Details: for inhibition in vivo at 1 mg/kg: Rattus norvegicus
Method in brief: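 Percent antagonism is based on the systolic blood pressure rise (mmHg) to i.v. angiotensin II at 0.05 and 0.1 ug/kg. Each rat's own predose response was taken as 100%. Challenges were repeated from 30 to 300 min after i.v., i.p. or oral compound in cannulated conscious male SHR, 16-20 weeks old.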

CCCCc1nc2ccc(C3(CO)CC4CCCN4O3)cc2c(=O)n1Cc1ccc(-c2ccccc2-c2nnn[nH]2)cc1 (stereo not drawn) [Example 80, (Trans)-2-butyl-6-[hexahydro-2-(hydroxymethyl)-Pyrrolo[1,2-b]isoxazol-2-yl]-3-[[2'-[1H-tetrazol-5-yl)[1,1'-biphenyl]-4-yl]methyl-4(3H)quinazolinone]
Response Average Change (1 mg/kg P.O., AII 0.05 mcg/kg IV, 30 min post dose): 30 mmHg
Response Average Change (1 mg/kg P.O., AII 0.05 mcg/kg IV, 60 min post dose): 15 mmHg
Response Average Change (1 mg/kg P.O., AII 0.05 mcg/kg IV, 90 min post dose): 22.5 mmHg
Response Average Change (1 mg/kg P.O., AII 0.05 mcg/kg IV, 120 min post dose): 10 mmHg
Response Average Change (1 mg/kg P.O., AII 0.05 mcg/kg IV, 180 min post dose): 19 mmHg
Response Average Change (1 mg/kg P.O., AII 0.05 mcg/kg IV, 240 min post dose): 17.5 mmHg
Response Average Change (1 mg/kg P.O., AII 0.05 mcg/kg IV, 300 min post dose): 30 mmHg
Response Average Change (1 mg/kg P.O., AII 0.1 mcg/kg IV, 30 min post dose): 37.5 mmHg
Response Average Change (1 mg/kg P.O., AII 0.1 mcg/kg IV, 60 min post dose): 32.5 mmHg
Response Average Change (1 mg/kg P.O., AII 0.1 mcg/kg IV, 90 min post dose): 27.5 mmHg
Response Average Change (1 mg/kg P.O., AII 0.1 mcg/kg IV, 120 min post dose): 22.5 mmHg
Response Average Change (1 mg/kg P.O., AII 0.1 mcg/kg IV, 180 min post dose): 25 mmHg
Response Average Change (1 mg/kg P.O., AII 0.1 mcg/kg IV, 240 min post dose): 25 mmHg
Response Average Change (1 mg/kg P.O., AII 0.1 mcg/kg IV, 300 min post dose): 27.5 mmHg
Response Average Change (1 mg/kg i.v., AII 0.05 mcg/kg IV, 30 min post dose): 5 mmHg
Response Average Change (1 mg/kg i.v., AII 0.05 mcg/kg IV, 60 min post dose): 5 mmHg
Response Average Change (1 mg/kg i.v., AII 0.05 mcg/kg IV, 90 min post dose): 9 mmHg
Response Average Change (1 mg/kg i.v., AII 0.05 mcg/kg IV, 120 min post dose): 12.5 mmHg
Response Average Change (1 mg/kg i.v., AII 0.05 mcg/kg IV, 180 min post dose): 12.5 mmHg
Response Average Change (1 mg/kg i.v., AII 0.05 mcg/kg IV, 240 min post dose): 20 mmHg
Response Average Change (1 mg/kg i.v., AII 0.05 mcg/kg IV, 300 min post dose): 16.5 mmHg
Response Average Change (1 mg/kg i.v., AII 0.1 mcg/kg IV, 30 min post dose): 8.5 mmHg
Response Average Change (1 mg/kg i.v., AII 0.1 mcg/kg IV, 60 min post dose): 10 mmHg
Response Average Change (1 mg/kg i.v., AII 0.1 mcg/kg IV, 90 min post dose): 22.5 mmHg
Response Average Change (1 mg/kg i.v., AII 0.1 mcg/kg IV, 120 min post dose): 17.5 mmHg
Response Average Change (1 mg/kg i.v., AII 0.1 mcg/kg IV, 180 min post dose): 17.5 mmHg
Response Average Change (1 mg/kg i.v., AII 0.1 mcg/kg IV, 240 min post dose): 22.5 mmHg
Response Average Change (1 mg/kg i.v., AII 0.1 mcg/kg IV, 300 min post dose): 30 mmHg
inhibition in vivo at 1 mg/kg (iv, 0.5 h, 1 mg/kg i.v., AII 0.05 mcg/kg IV, 30 min post dose): 90%
inhibition in vivo at 1 mg/kg (iv, 0.5 h, 1 mg/kg i.v., AII 0.1 mcg/kg IV, 30 min post dose): 83%
inhibition in vivo at 1 mg/kg (iv, 1 h, 1 mg/kg i.v., AII 0.05 mcg/kg IV, 60 min post dose): 90%
inhibition in vivo at 1 mg/kg (iv, 1 h, 1 mg/kg i.v., AII 0.1 mcg/kg IV, 60 min post dose): 80%
inhibition in vivo at 1 mg/kg (iv, 2 h, 1 mg/kg i.v., AII 0.05 mcg/kg IV, 120 min post dose): 76%
inhibition in vivo at 1 mg/kg (iv, 2 h, 1 mg/kg i.v., AII 0.1 mcg/kg IV, 120 min post dose): 65%
inhibition in vivo at 1 mg/kg (iv, 3 h, 1 mg/kg i.v., AII 0.05 mcg/kg IV, 180 min post dose): 76%
inhibition in vivo at 1 mg/kg (iv, 3 h, 1 mg/kg i.v., AII 0.1 mcg/kg IV, 180 min post dose): 65%
inhibition in vivo at 1 mg/kg (iv, 4 h, 1 mg/kg i.v., AII 0.05 mcg/kg IV, 240 min post dose): 62%
inhibition in vivo at 1 mg/kg (iv, 4 h, 1 mg/kg i.v., AII 0.1 mcg/kg IV, 240 min post dose): 55%
inhibition in vivo at 1 mg/kg (iv, 5 h, 1 mg/kg i.v., AII 0.05 mcg/kg IV, 300 min post dose): 69%
inhibition in vivo at 1 mg/kg (iv, 5 h, 1 mg/kg i.v., AII 0.1 mcg/kg IV, 300 min post dose): 40%
inhibition in vivo at 1 mg/kg (iv, […], 1 mg/kg i.v., AII 0.05 mcg/kg IV, 90 min post dose): 83%
inhibition in vivo at 1 mg/kg (iv, […], 1 mg/kg i.v., AII 0.1 mcg/kg IV, 90 min post dose): 55%
inhibition in vivo at 1 mg/kg (po, 0.5 h, 1 mg/kg P.O., AII 0.05 mcg/kg IV, 30 min post dose): 25%
inhibition in vivo at 1 mg/kg (po, 0.5 h, 1 mg/kg P.O., AII 0.1 mcg/kg IV, 30 min post dose): 6%
inhibition in vivo at 1 mg/kg (po, 1 h, 1 mg/kg P.O., AII 0.05 mcg/kg IV, 60 min post dose): 63%
inhibition in vivo at 1 mg/kg (po, 1 h, 1 mg/kg P.O., AII 0.1 mcg/kg IV, 60 min post dose): 19%
inhibition in vivo at 1 mg/kg (po, 2 h, 1 mg/kg P.O., AII 0.05 mcg/kg IV, 120 min post dose): 75%
inhibition in vivo at 1 mg/kg (po, 2 h, 1 mg/kg P.O., AII 0.1 mcg/kg IV, 120 min post dose): 44%
inhibition in vivo at 1 mg/kg (po, 3 h, 1 mg/kg P.O., AII 0.05 mcg/kg IV, 180 min post dose): 53%
inhibition in vivo at 1 mg/kg (po, 3 h, 1 mg/kg P.O., AII 0.1 mcg/kg IV, 180 min post dose): 38%
inhibition in vivo at 1 mg/kg (po, 4 h, 1 mg/kg P.O., AII 0.05 mcg/kg IV, 240 min post dose): 56%
inhibition in vivo at 1 mg/kg (po, 4 h, 1 mg/kg P.O., AII 0.1 mcg/kg IV, 240 min post dose): 38%
inhibition in vivo at 1 mg/kg (po, 5 h, 1 mg/kg P.O., AII 0.05 mcg/kg IV, 300 min post dose): 25%
inhibition in vivo at 1 mg/kg (po, 5 h, 1 mg/kg P.O., AII 0.1 mcg/kg IV, 300 min post dose): 31%
inhibition in vivo at 1 mg/kg (po, […], 1 mg/kg P.O., AII 0.05 mcg/kg IV, 90 min post dose): 44%
inhibition in vivo at 1 mg/kg (po, […], 1 mg/kg P.O., AII 0.1 mcg/kg IV, 90 min post dose): 31%
